According to patent US20260001928A1 (CORTERIA PHARMACEUTICALS, priority 2022, published 2026):
*1 amine or outer side, *2 acyl side, *3 side chain or, on linkers, in order; H or OH if unused. Where a SMILES comes first, the peptide text is derived from it. Side-chain parts run from the residue outwards. [ ]: non-standard residue; d: D form. The star is where a group is joined. C18 diacid = O=C(O)CCCCCCCCCCCCCCCCC(=O)*; γGlu = O=C(O)[C@H](CCC(=O)[*:2])N[*:1]; NMeI = CC[C@H](C)[C@H](NC)C(=O)O; Pentanoyl = CCCCC(=O)*; AEEA = NCCOCCOCC(=O)O; Aib = CC(C)(N)C(=O)O

What follows are compounds tested against T1, CFR1R receptor (Homo sapiens, UniProt P34998) (assay: Activity at anti-target CFR1R receptor, cAMP assay in CRF1R-overexpression CHO-K1 cells). Conditions: 100% = Sauvagine at 100 nM.
T1 construct: host or cells: CHO-K1 (clone 2)
T1 sequence (P34998 24-415): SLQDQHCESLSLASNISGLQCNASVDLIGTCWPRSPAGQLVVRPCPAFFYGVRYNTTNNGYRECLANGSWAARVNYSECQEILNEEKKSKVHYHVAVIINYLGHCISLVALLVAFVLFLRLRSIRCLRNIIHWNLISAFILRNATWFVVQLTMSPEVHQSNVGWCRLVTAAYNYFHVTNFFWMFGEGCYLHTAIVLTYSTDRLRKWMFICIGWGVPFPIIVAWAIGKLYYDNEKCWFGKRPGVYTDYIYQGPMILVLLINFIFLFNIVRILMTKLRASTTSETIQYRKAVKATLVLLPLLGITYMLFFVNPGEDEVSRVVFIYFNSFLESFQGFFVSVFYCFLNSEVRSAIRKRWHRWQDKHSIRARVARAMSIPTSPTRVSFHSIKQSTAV
Format: cell-based
Method: Assessment of activity at anti-target CFR1R receptor is done using the same procedure as the one described for the TeloHEAC cell line. The CRF1R-overexpression CHO-K1 cell line clone 2 was purchased from PerkinElmer. Cells were grown in a 10 cm dish at 37° C./5% CO2 in medium (F12 (Hams)/10% FBS/400 μg/ml G418) to near confluence. At that stage, cells were harvested, resuspended to 10 million/mL in culture medium without G418 and with 10% DMSO. 1 mL vial aliquots were slowly frozen to −80° C. in isopropanol and then transferred in liquid nitrogen for storage. These vials were used to run the experiment following the procedure reported in the previous paragraph, except for the compound used in the control well to define the 100% activation (Sauvagine at 100 nM) and the cell density (final cell density: 4000 cells/well)

Row | Emax (% I) | Structure (SMILES)
1 | 7 | CC[C@H](C)[C@H](NC(C)=O)C(=O)N[C@H](C(=O)N[C@@H](CC(C)C)C(=O)N[C@@H](CO)C(=O)N[C@@H](CC(C)C)C(=O)N[C@@H](CC(=O)O)C(=O)N[C@@H](C(=O)N1CCC[C@H]1C(=O)N[C@H](C(=O)N[C@@H](CCCCN)C(=O)N[C@@H](CC(C)C)C(=O)N[C@@H](CCCCNC(=O)COCCOCCNC(=O)COCCOCCNC(=O)CC[C@H](NC(=O)CC[C@H](NC(=O)CCCCCCCCCCCCCCCCC(=O)O)C(=O)O)C(=O)O)C(=O)N[C@@H](CCC(N)=O)C(=O)NC(C)(C)C(=O)N[C@@H](CC(C)C)C(=O)N[C@@H](CC(C)C)C(=O)N[C@@H](CCCCN)C(=O)N[C@@H](CCC(N)=O)C(=O)N[C@@H](CCC(=O)O)C(=O)N[C@@H](CCCNC(=N)N)C(=O)N[C@@H](CCC(N)=O)C(=O)N[C@@H](CCCCN)C(=O)N[C@@H](CCCCN)C(=O)N[C@@H](CCC(N)=O)C(=O)N[C@@H](CCCNC(=N)N)C(=O)N[C@@H](CCC(=O)O)C(=O)N[C@@H](CCC(N)=O)C(=O)N[C@@H](C)C(=O)N[C@@H](CCC(=O)O)C(=O)N[C@@H](CCCCN)C(=O)N[C@@H](CC(N)=O)C(=O)N[C@H](C(=O)N[C@@H](CCC(N)=O)C(=O)N[C@H](C(=O)N[C@@H](CC(C)C)C(=O)N[C@@H](CCC(=O)O)C(=O)N[C@@H](CCC(N)=O)C(=O)N[C@H](C(N)=O)C(C)C)[C@@H](C)CC)C(C)C)[C@@H](C)CC)C(C)C)C(C)C [compound 27] (Ac-IVLSLD[dV]PIKLK([AEEA-AEEA-γGlu-γGlu-C18 diacid])Q[Aib]LLKQERQKKQREQAEKNVQILEQV-NH2)
2 | 6 | CC[C@H](C)[C@H](NC)C(=O)N[C@H](C(=O)N[C@@H](CC(C)C)C(=O)N[C@@H](CO)C(=O)N[C@@H](CC(C)C)C(=O)N[C@@H](CC(=O)O)C(=O)N[C@@H](C(=O)N1CCC[C@H]1C(=O)N[C@H](C(=O)N[C@@H](CCCCN)C(=O)N[C@@H](CC(C)C)C(=O)N[C@@H](CCCCNC(=O)COCCOCCNC(=O)COCCOCCNC(=O)CC[C@H](NC(=O)CC[C@H](NC(=O)CCCCCCCCCCCCCCCCC(=O)O)C(=O)O)C(=O)O)C(=O)N[C@@H](CCC(N)=O)C(=O)NC(C)(C)C(=O)N[C@@H](CC(C)C)C(=O)N[C@@H](CC(C)C)C(=O)N[C@@H](CCCCN)C(=O)N[C@@H](CCC(N)=O)C(=O)N[C@@H](CCC(=O)O)C(=O)N[C@@H](CCCNC(=N)N)C(=O)N[C@@H](CCC(N)=O)C(=O)N[C@@H](CCCCN)C(=O)N[C@@H](CCCCN)C(=O)N[C@@H](CCC(N)=O)C(=O)N[C@@H](CCCNC(=N)N)C(=O)N[C@@H](CCC(=O)O)C(=O)N[C@@H](CCC(N)=O)C(=O)N[C@@H](C)C(=O)N[C@@H](CCC(=O)O)C(=O)N[C@@H](CCCCN)C(=O)N[C@@H](CC(N)=O)C(=O)N[C@H](C(=O)N[C@@H](CCC(N)=O)C(=O)N[C@H](C(=O)N[C@@H](CC(C)C)C(=O)N[C@@H](CCC(=O)O)C(=O)N[C@@H](CCC(N)=O)C(=O)N[C@H](C(N)=O)C(C)C)[C@@H](C)CC)C(C)C)[C@@H](C)CC)C(C)C)C(C)C [compound 28] (H-[NMeI]VLSLD[dV]PIKLK([AEEA-AEEA-γGlu-γGlu-C18 diacid])Q[Aib]LLKQERQKKQREQAEKNVQILEQV-NH2)
3 | 6 | CCCCC(=O)N[C@H](C(=O)N[C@@H](CC(C)C)C(=O)N[C@@H](CO)C(=O)N[C@@H](CC(C)C)C(=O)N[C@@H](CC(=O)O)C(=O)N[C@@H](C(=O)N1CCC[C@H]1C(=O)N[C@H](C(=O)N[C@@H](CCCCN)C(=O)N[C@@H](CC(C)C)C(=O)N[C@@H](CCCCNC(=O)COCCOCCNC(=O)COCCOCCNC(=O)CC[C@H](NC(=O)CC[C@H](NC(=O)CCCCCCCCCCCCCCCCC(=O)O)C(=O)O)C(=O)O)C(=O)N[C@@H](CCC(N)=O)C(=O)NC(C)(C)C(=O)N[C@@H](CC(C)C)C(=O)N[C@@H](CC(C)C)C(=O)N[C@@H](CCCCN)C(=O)N[C@@H](CCC(N)=O)C(=O)N[C@@H](CCC(=O)O)C(=O)N[C@@H](CCCNC(=N)N)C(=O)N[C@@H](CCC(N)=O)C(=O)N[C@@H](CCCCN)C(=O)N[C@@H](CCCCN)C(=O)N[C@@H](CCC(N)=O)C(=O)N[C@@H](CCCNC(=N)N)C(=O)N[C@@H](CCC(=O)O)C(=O)N[C@@H](CCC(N)=O)C(=O)N[C@@H](C)C(=O)N[C@@H](CCC(=O)O)C(=O)N[C@@H](CCCCN)C(=O)N[C@@H](CC(N)=O)C(=O)N[C@H](C(=O)N[C@@H](CCC(N)=O)C(=O)N[C@H](C(=O)N[C@@H](CC(C)C)C(=O)N[C@@H](CCC(=O)O)C(=O)N[C@@H](CCC(N)=O)C(=O)N[C@H](C(N)=O)C(C)C)[C@@H](C)CC)C(C)C)[C@@H](C)CC)C(C)C)C(C)C [compound 29] (Pentanoyl-VLSLD[dV]PIKLK([AEEA-AEEA-γGlu-γGlu-C18 diacid])Q[Aib]LLKQERQKKQREQAEKNVQILEQV-NH2)
4 | 15 | CC[C@H](C)[C@H](NC(C)=O)C(=O)N[C@H](C(=O)N[C@@H](CC(C)C)C(=O)N[C@@H](CO)C(=O)N[C@@H](CC(C)C)C(=O)N[C@@H](CC(=O)O)C(=O)N[C@@H](C(=O)N1CCC[C@H]1C(=O)N[C@H](C(=O)N[C@@H](CCCCN)C(=O)N[C@@H](CC(C)C)C(=O)N[C@@H](CCCCNC(=O)COCCOCCNC(=O)COCCOCCNC(=O)CC[C@H](NC(=O)CC[C@H](NC(=O)CCCCCCCCCCCCCCCCC(=O)O)C(=O)O)C(=O)O)C(=O)N[C@@H](CCC(N)=O)C(=O)N[C@H](C(=O)N[C@@H](CC(C)C)C(=O)N[C@@H](CC(C)C)C(=O)N[C@@H](CCCCN)C(=O)N[C@@H](CCC(N)=O)C(=O)N[C@@H](CCC(=O)O)C(=O)N[C@@H](CCCNC(=N)N)C(=O)N[C@@H](CCC(N)=O)C(=O)N[C@@H](CCCCN)C(=O)N[C@@H](CCCCN)C(=O)N[C@@H](CCC(N)=O)C(=O)N[C@@H](CCCNC(=N)N)C(=O)N[C@@H](CCC(=O)O)C(=O)N[C@@H](CCC(N)=O)C(=O)N[C@@H](C)C(=O)N[C@@H](CCC(=O)O)C(=O)N[C@@H](CCCCN)C(=O)N[C@@H](CC(N)=O)C(=O)NC(C)(C)C(=O)N[C@@H](CCC(N)=O)C(=O)N[C@H](C(=O)N[C@@H](CC(C)C)C(=O)N[C@@H](CCC(=O)O)C(=O)N[C@@H](CCC(N)=O)C(=O)N[C@H](C(N)=O)C(C)C)[C@@H](C)CC)[C@@H](C)CC)[C@@H](C)CC)C(C)C)C(C)C [compound 30] (Ac-IVLSLD[dV]PIKLK([AEEA-AEEA-γGlu-γGlu-C18 diacid])QILLKQERQKKQREQAEKN[Aib]QILEQV-NH2)
